Laboratory results taken from the supplement of paper PMC10307832.

How the values were obtained:
Assay in all cases: relative viability (nuclei count vs DMSO), 5 days (fraction); higher = more cells survive
Cediranib + OSI-027 = compound: COc1cc2c(Oc3ccc4[nH]c(C)cc4c3F)ncnc2cc1OCCCN1CCCC1 [Cediranib] + COc1cccc2cc(-c3nc([C@H]4CC[C@H](C(=O)O)CC4)n4ncnc(N)c34)[nH]c12 [OSI-027] (partner 0.5 µM)
How it was run: (§1)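 Each reported value is a median over duplicate plates. It expresses relative viability: treated-well nuclei count divided by vehicle-well nuclei count. Lung cancer cell lines in 1536-well plates were dosed by pin tool a day after seeding, alone with one drug or with a fixed anchor-drug dose plus five library-drug doses (not always all listed) in √10 steps, and nuclei were counted after 5 days.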

Decitabine + OSI-027 = compound: Nc1ncn([C@H]2C[C@H](O)[C@@H](CO)O2)c(=O)n1 [Decitabine] + COc1cccc2cc(-c3nc([C@H]4CC[C@H](C(=O)O)CC4)n4ncnc(N)c34)[nH]c12 [OSI-027] (partner 0.5 µM)
How it was run: as §1

Halofuginone + OSI-027 = compound: O=C(C[C@H]1NCCC[C@@H]1O)Cn1cnc2cc(Br)c(Cl)cc2c1=O (racemic) [Halofuginone] + COc1cccc2cc(-c3nc([C@H]4CC[C@H](C(=O)O)CC4)n4ncnc(N)c34)[nH]c12 [OSI-027] (partner 0.5 µM)
How it was run: as §1

[1] = compound: O=C(C[C@H]1NCCC[C@@H]1O)Cn1cnc2cc(Br)c(Cl)cc2c1=O (racemic) [Halofuginone] + CCNC(=O)c1noc(-c2cc(C(C)C)c(O)cc2O)c1-c1ccc(CN2CCOCC2)cc1 [Luminespib] (partner 0.01 µM)
How it was run: as §1

Row | Cell Line | relative viability (Cediranib + OSI-027; first compound 0.04 µM) | relative viability (Cediranib + OSI-027; first compound 0.1265 µM) | relative viability (Cediranib + OSI-027; first compound 0.4 µM) | relative viability (Cediranib + OSI-027; first compound 1.265 µM) | relative viability (Cediranib + OSI-027; first compound 4 µM) | relative viability (Decitabine + OSI-027; first compound 0.04 µM) | relative viability (Decitabine + OSI-027; first compound 0.1265 µM) | relative viability (Decitabine + OSI-027; first compound 0.4 µM) | relative viability (Decitabine + OSI-027; first compound 1.265 µM) | relative viability (Decitabine + OSI-027; first compound 4 µM) | relative viability (Halofuginone + OSI-027; first compound 0.001 µM) | relative viability (Halofuginone + OSI-027; first compound 0.003162 µM) | relative viability (Halofuginone + OSI-027; first compound 0.01 µM) | relative viability (Halofuginone + OSI-027; first compound 0.03162 µM) | relative viability (Halofuginone + OSI-027; first compound 0.1 µM) | relative viability ([1]; first compound 0.001 µM) | relative viability ([1]; first compound 0.003162 µM) | relative viability ([1]; first compound 0.01 µM) | relative viability ([1]; first compound 0.03162 µM) | relative viability ([1]; first compound 0.1 µM)
1 | NCI-H2405 | 0.648 | 0.606 | 0.617 | 0.52 | 0.622 | 0.555 | 0.564 | 0.543 | 0.444 | 0.399 | 0.71 | 0.656 | 0.638 | 0.619 | 0.577 | 0.797 | 0.691 | 0.72 | 0.688 | 0.663
2 | NCI-H3122 | 1.09 | – | 0.897 | 0.888 | 0.975 | 0.814 | 0.955 | 0.468 | – | 0.559 | 0.894 | 1.05 | 0.867 | 0.943 | 0.384 | 0.0978 | 0.0825 | 0.0899 | 0.0925 | 0.148
3 | PC-3 [JPC-3] | 0.777 | 0.824 | 0.73 | 0.688 | 0.627 | 0.463 | 0.702 | 0.475 | 0.469 | 0.426 | 0.798 | 0.804 | 0.75 | 0.76 | 0.736 | 0.705 | 0.714 | 0.626 | 0.823 | 0.661
4 | PC-14 | 0.993 | 0.894 | 0.735 | 0.61 | 0.724 | 0.148 | 0.425 | 0.16 | 0.113 | 0.105 | 0.828 | 0.962 | 0.704 | 0.471 | 0.0328 | 0.152 | 0.161 | 0.183 | 0.184 | 0.104
5 | RERF-LC-KJ | 0.572 | 0.511 | 0.547 | 0.492 | 0.523 | 0.529 | 0.559 | – | 0.457 | 0.471 | 0.618 | 0.609 | 0.537 | 0.565 | 0.488 | 1.47 | 1.27 | 1.22 | 1.25 | 0.887
6 | SK-LU-1 | 0.343 | 0.39 | 0.338 | 0.257 | 0.33 | 0.296 | 0.29 | 0.216 | 0.253 | 0.227 | 0.388 | 0.399 | 0.406 | 0.341 | 0.276 | 0.202 | 0.196 | 0.23 | 0.219 | 0.174
7 | SK-MES-1 | 0.666 | 0.633 | 0.608 | 0.542 | 0.788 | 0.508 | 0.529 | 0.384 | 0.188 | 0.203 | 0.679 | 0.666 | 0.557 | 0.498 | 0.152 | 0.842 | 0.704 | 0.756 | 0.284 | 0.164
8 | SW 900 | 0.712 | 0.642 | 0.504 | 0.59 | 0.69 | 0.321 | 0.349 | 0.191 | 0.183 | 0.175 | 0.68 | 0.628 | 0.518 | 0.494 | 0.293 | 0.205 | 0.187 | 0.144 | 0.181 | 0.154
9 | SW 1573 | 0.682 | 0.644 | 0.604 | 0.427 | 0.662 | 0.469 | 0.558 | 0.572 | 0.273 | 0.21 | 0.919 | 0.85 | 0.571 | 0.509 | 0.143 | 0.507 | 0.152 | 0.265 | 0.113 | 0.0969
